US20090306133A1, “New Acetyl Coenzyme A Carboxylase (ACC) Inhibitors And Uses In Treatments Of Obesity And Diabetes Mellitus - 087” (ASTRAZENECA AB, priority 2007, published 2009)

Tests used:
[1] = molecular target: Human recombinant Acetyl-CoA Carboxylase 2 (ACC2) (Homo sapiens, UniProt O00763); assay: Assay Y: ACC2 inhibition, inorganic phosphate (Malachite Green); format: biochemical; conditions: Assay Y: room temperature, 3 hr, 15 min preincubation
Experimental: (§1) Preincubation of 6 μL enzyme together with 0.3 μL compound for 15 min was done before the reaction was initiated by the addition of 4 μL substrate. […] After 3 hr the reaction was stopped by addition of 60 μL of water followed by 30 μL Malachite Green solution. The Malachite Green solution was prepared by mixing 16.4 mL ammonium molybdate solution (7.5%), 1.64 mL Tween (11%) with 82 mL Malachite Green/H2SO4-solution (0.7 g Malachite Green to 1000 mL of 10% (v/v) H2SO4). Plates were left for 10 min at room temperature before reading the absorbance at 670 nm. All compounds were tested in triplicate at 10 different concentrations. Control compound (0, 50 and 100% effect) was included on each plate. […] An IC50 value was derived by non-linear regression curve fitting using the following equation: […]))) where A is the non-specific binding, B is the total binding, C is the IC50 and D is the slope. Saturation binding Kd and Bmax were derived using the equation y=((B1 max*x)/(Kd+x)).

[2] = molecular target: Human recombinant Acetyl-CoA Carboxylase 1 (ACC1) (Homo sapiens, UniProt Q13085); assay: Assay Y: ACC1 inhibition, inorganic phosphate (Malachite Green); format: biochemical; conditions: Assay Y: room temperature, 3 hr, 15 min preincubation
Experimental: as §1

Chain of Human recombinant Acetyl-CoA Carboxylase 2 (ACC2) (O00763 whole entry): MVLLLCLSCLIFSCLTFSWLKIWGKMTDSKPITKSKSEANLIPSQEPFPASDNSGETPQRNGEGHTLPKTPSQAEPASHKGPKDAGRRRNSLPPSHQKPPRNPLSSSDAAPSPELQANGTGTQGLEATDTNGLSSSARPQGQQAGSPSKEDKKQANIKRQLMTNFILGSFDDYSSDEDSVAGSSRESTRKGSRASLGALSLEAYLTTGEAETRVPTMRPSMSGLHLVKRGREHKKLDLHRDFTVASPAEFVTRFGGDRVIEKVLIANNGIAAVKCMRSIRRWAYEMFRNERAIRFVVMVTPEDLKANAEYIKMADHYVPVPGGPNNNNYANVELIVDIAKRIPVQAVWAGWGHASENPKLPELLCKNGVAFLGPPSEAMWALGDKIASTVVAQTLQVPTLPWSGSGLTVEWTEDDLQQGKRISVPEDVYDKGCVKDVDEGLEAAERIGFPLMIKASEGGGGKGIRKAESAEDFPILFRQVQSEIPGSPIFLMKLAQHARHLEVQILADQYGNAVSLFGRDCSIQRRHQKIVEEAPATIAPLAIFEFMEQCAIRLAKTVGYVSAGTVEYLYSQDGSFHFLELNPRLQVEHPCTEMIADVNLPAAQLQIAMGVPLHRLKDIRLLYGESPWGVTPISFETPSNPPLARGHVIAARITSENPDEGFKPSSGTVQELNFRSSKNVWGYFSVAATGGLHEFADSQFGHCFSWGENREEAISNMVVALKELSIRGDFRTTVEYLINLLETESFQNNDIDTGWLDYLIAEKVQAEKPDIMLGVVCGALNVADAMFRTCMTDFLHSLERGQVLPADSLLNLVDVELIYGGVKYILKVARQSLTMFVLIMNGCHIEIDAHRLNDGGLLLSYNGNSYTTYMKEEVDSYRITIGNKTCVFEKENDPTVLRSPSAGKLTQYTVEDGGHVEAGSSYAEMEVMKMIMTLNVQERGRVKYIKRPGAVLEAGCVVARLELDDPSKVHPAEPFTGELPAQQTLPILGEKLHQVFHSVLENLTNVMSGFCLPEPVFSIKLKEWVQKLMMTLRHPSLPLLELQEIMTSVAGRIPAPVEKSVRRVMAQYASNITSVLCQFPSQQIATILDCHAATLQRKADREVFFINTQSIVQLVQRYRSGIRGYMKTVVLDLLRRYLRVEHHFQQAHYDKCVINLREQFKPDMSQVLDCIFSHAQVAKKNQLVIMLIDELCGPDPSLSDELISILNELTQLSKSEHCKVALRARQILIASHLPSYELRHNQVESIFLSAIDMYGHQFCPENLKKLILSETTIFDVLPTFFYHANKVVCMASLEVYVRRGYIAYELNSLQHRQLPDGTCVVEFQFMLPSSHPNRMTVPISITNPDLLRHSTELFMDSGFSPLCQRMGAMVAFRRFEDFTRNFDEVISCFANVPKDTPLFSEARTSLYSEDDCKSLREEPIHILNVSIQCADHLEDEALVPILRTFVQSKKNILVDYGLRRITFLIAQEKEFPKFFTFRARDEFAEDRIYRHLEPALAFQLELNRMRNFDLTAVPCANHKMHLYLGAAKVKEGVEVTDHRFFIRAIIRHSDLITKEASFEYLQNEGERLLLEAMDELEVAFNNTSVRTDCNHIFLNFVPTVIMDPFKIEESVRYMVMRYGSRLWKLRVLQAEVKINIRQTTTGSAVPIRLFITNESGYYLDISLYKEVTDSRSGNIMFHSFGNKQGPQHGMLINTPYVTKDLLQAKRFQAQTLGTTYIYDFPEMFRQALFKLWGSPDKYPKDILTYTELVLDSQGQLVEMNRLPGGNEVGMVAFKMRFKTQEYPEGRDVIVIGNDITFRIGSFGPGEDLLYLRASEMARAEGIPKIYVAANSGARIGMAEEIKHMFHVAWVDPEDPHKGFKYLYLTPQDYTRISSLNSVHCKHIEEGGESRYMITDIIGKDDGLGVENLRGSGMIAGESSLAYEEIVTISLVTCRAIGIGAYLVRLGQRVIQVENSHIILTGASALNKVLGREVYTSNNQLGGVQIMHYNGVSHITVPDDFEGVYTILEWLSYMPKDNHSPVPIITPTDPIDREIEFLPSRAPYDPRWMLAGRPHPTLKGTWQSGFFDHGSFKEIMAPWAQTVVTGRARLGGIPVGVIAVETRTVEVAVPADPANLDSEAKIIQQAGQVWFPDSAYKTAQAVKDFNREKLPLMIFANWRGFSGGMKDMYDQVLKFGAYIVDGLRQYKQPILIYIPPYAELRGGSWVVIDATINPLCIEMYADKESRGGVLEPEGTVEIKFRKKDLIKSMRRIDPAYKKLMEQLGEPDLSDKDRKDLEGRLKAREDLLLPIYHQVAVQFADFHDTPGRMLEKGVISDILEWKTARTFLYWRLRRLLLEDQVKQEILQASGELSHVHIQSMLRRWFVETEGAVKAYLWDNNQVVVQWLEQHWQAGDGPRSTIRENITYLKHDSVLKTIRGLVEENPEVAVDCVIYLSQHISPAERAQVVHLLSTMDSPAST

| IC50 [1] [µM] | IC50 [2] [µM] | Structure (SMILES) |
| --- | --- | --- |
| 6.82 | 5.3 | CC(C)(C)OC(=O)NC[C@H]1CC[C@H](CNC(=O)c2ccnc(-c3ccc(C(N)=O)cc3)c2)CC1 [Example 50, tert-Butyl {[trans-4-({[2-(4-carbamoylphenyl)isonicotinoyl]amino}methyl)cyclohexyl]-methyl}carbamate] |
| 5.67 | > 20 | CC(C)(C)OC(=O)NC[C@H]1CC[C@H](CNC(=O)c2ccnc(-c3cccc(Cl)c3)c2)CC1 [Example 51, tert-Butyl {[trans-4-({[2-(3-chlorophenyl)isonicotinoyl]amino}methyl)cyclohexyl]-methyl}carbamate] |
| 7.66 | 8.23 | CC(C)(C)OC(=O)NC[C@H]1CC[C@H](CNC(=O)c2ccnc(-c3ccc(CN)cc3)c2)CC1 [Example 52, tert-Butyl ({trans-4-[({2-[4-(aminomethyl)phenyl]isonicotinoyl}amino)methyl]cyclo-hexyl}methyl)carbamate] |
| 9.08 | > 20 | CC(C)(C)OC(=O)NC[C@H]1CC[C@H](CNC(=O)c2ccnc(-c3ccc(F)c(F)c3)c2)CC1 [Example 53, tert-Butyl {[trans-4-({[2-(3,4-difluorophenyl)isonicotinoyl]amino}methyl)cyclohexyl]-methyl}carbamate] |
| 3.99 | > 20 | CCOC(=O)NC[C@H]1CC[C@H](CNS(=O)(=O)c2ccc3ccccc3c2)CC1 [Example 54, Ethyl [(trans-4-{[(2-naphthylsulfonyl)amino]methyl}cyclohexyl)methyl]carbamate] |
| 0.28 | 1.3 | CC(C)(C)COC(=O)NC[C@H]1CC[C@H](CNC(=O)c2cc(-c3ccncc3)nc3ccccc23)CC1 [Example 55, 2,2-Dimethylpropyl {[trans-4-({[(2-pyridin-4-ylquinolin-4-yl)carbonyl]amino}methyl)-cyclohexyl]methyl}carbamate] |
| 0.4 | 1.21 | O=C(NC[C@H]1CC[C@H](CNC(=O)c2cc(-c3ccncc3)nc3ccccc23)CC1)OC1CCCC1 [Example 56, Cyclopentyl {[trans-4-({[(2-pyridin-4-ylquinolin-4-yl)carbonyl]amino}methyl)cyclo-hexyl]methyl}carbamate] |
| 0.8 | 1.91 | CC(C)OC(=O)NC[C@H]1CC[C@H](CNC(=O)c2cc(-c3ccncc3)nc3ccccc23)CC1 [Example 57, Isopropyl {[trans-4-({[(2-pyridin-4-ylquinolin-4-yl)carbonyl]amino}methyl)cyclo-hexyl]methyl}carbamate] |
| 0.81 | 2.1 | CCCOC(=O)NC[C@H]1CC[C@H](CNC(=O)c2cc(-c3ccncc3)nc3ccccc23)CC1 [Example 58, Propyl {[trans-4-({[(2-pyridin-4-ylquinolin-4-yl)carbonyl]amino}methyl)cyclohexyl]-methyl}carbamate] |
| 4.67 | > 20 | COCCOC(=O)NC[C@H]1CC[C@H](CNC(=O)c2cc(-c3ccncc3)nc3ccccc23)CC1 [Example 59, 2-Methoxyethyl {[trans-4-({[(2-pyridin-4-ylquinolin-4-yl)carbonyl]amino}-methyl)cyclohexyl]methyl}carbamate] |
| 1.82 | 3.17 | CCOC(=O)NC[C@H]1CC[C@H](CNC(=O)c2cc(-c3ccncc3)nc3ccccc23)CC1 [Example 60, Ethyl {[trans-4-({[(2-pyridin-4-ylquinolin-4-yl)carbonyl]amino}methyl)cyclo-hexyl]methyl}carbamate] |
| 0.55 | 1 | CCOC(=O)NC[C@H]1CC[C@H](CNC(=O)c2cc(-c3ccc(C(N)=O)cc3)nc3ccccc23)CC1 [Example 61, Ethyl ({trans-4-[({[2-(4-carbamoylphenyl)quinolin-4-yl]carbonyl}amino)methyl]-cyclohexyl}methyl)carbamate] |
| 2.77 | 3.07 | CCOC(=O)NC[C@H]1CC[C@H](CNC(=O)c2cc(-c3ccccc3)nc3ccccc23)CC1 [Example 62, Ethyl {[trans-4-({[(2-phenylquinolin-4-yl)carbonyl]amino}methyl)cyclohexyl]methyl}-carbamate] |
| 2.83 | 4.58 | CC(C)(C)OC(=O)NC[C@H]1CC[C@H](CNS(=O)(=O)c2cccc(-c3ccccc3)c2)CC1 [Example 63, tert-Butyl [(trans-4-{[(biphenyl-3-ylsulfonyl)amino]methyl}cyclohexyl)methyl]-carbamate] |
| 3.72 | > 20 | CC(C)(C)OC(=O)NC[C@H]1CC[C@H](CNS(=O)(=O)c2ccc(Br)c(Br)c2)CC1 [Example 64, tert-Butyl {[trans-4-({[(3,4-dibromophenyl)sulfonyl]amino}methyl)cyclohexyl]-methyl}carbamate] |
| 3.88 | > 20 | CC(C)(C)OC(=O)NC[C@H]1CC[C@H](CNS(=O)(=O)c2ccc(Cl)c(Cl)c2)CC1 [Example 65, tert-Butyl {[trans-4-({[(3,4-dichlorophenyl)sulfonyl]amino}methyl)cyclohexyl]methyl}-carbamate] |
| 1.39 | 6.79 | CC(C)(C)OC(=O)NC[C@H]1CC[C@H](CNS(=O)(=O)c2cccc3cccnc23)CC1 [Example 66, tert-Butyl [(trans-4-{[(quinolin-8-ylsulfonyl)amino]methyl}cyclohexyl)methyl]-carbamate] |
| 3.29 | > 20 | CC(C)(C)OC(=O)NC[C@H]1CC[C@H](CNS(=O)(=O)c2ccc(-c3ccccc3)cc2)CC1 [Example 67, tert-Butyl [(trans-4-{[(biphenyl-4-ylsulfonyl)amino]methyl}cyclohexyl)methyl]-carbamate] |
| 2.62 | > 20 | CC(C)c1ccc(S(=O)(=O)NC[C@H]2CC[C@H](CNC(=O)OC(C)(C)C)CC2)cc1 [Example 68, tert-Butyl {[trans-4-({[(4-isopropylphenyl)sulfonyl]amino}methyl)cyclohexyl]methyl}-carbamate] |
| 2.85 | > 20 | Cc1nc(-c2ccc(S(=O)(=O)NC[C@H]3CC[C@H](CNC(=O)OC(C)(C)C)CC3)s2)cs1 [Example 70, tert-Butyl ({trans-4-[({[5-(2-methyl-1,3-thiazol-4-yl)-2-thienyl]sulfonyl}amino)-methyl]cyclohexyl}methyl)carbamate] |
| 2.45 | 16.9 | CC(=O)Nc1cccc2c(S(=O)(=O)NC[C@H]3CC[C@H](CNC(=O)OC(C)(C)C)CC3)cccc12 [Example 71, tert-Butyl {[trans-4-({[(5-acetamido-1-naphthyl)sulfonyl]amino}methyl)cyclohexyl]-methyl}carbamate] |
| 2.48 | > 20 | CC(C)(C)OC(=O)NC[C@H]1CC[C@H](CNS(=O)(=O)c2ccc(-c3ccno3)s2)CC1 [Example 72, tert-Butyl {[trans-4-({[(5-isoxazol-5-yl-2-thienyl)sulfonyl]amino}methyl)cyclo-hexyl]methyl}carbamate] |
| 5.03 | > 20 | CC(=O)Nc1ccc(S(=O)(=O)NC[C@H]2CC[C@H](CNC(=O)OC(C)(C)C)CC2)cc1 [Example 73, tert-Butyl {[trans-4-({[(4-acetamidophenyl)sulfonyl]amino}methyl)cyclohexyl]-methyl}carbamate] |
| 9.49 | > 20 | CC(C)(C)OC(=O)NC[C@H]1CC[C@H](CNS(=O)(=O)c2ccsc2)CC1 [Example 74, tert-Butyl [(trans-4-{[(3-thienylsulfonyl)amino]methyl}cyclohexyl)methyl]-carbamate] |
| 4.27 | > 20 | Cc1nc(-c2cccc(S(=O)(=O)NC[C@H]3CC[C@H](CNC(=O)OC(C)(C)C)CC3)c2)no1 [Example 75, tert-Butyl ({trans-4-[({[3-(5-methyl-1,2,4-oxadiazol-3-yl)phenyl]sulfonyl}amino)-methyl]cyclohexyl}methyl)carbamate] |
| 3.62 | > 20 | CC(C)(C)OC(=O)NC[C@H]1CC[C@H](CNS(=O)(=O)c2cccc3cnccc23)CC1 [Example 76, tert-Butyl [(trans-4-{[(isoquinolin-5-ylsulfonyl)amino]methyl}cyclohexyl)-methyl]carbamate] |
| 3.62 | 9.32 | CC(=O)Nc1nc(C)sc1S(=O)(=O)NC[C@H]1CC[C@H](CNC(=O)OC(C)(C)C)CC1 [Example 77, tert-Butyl {[trans-4-({[(4-acetamido-2-methyl-1,3-thiazol-5-yl)sulfonyl]amino}methyl)-cyclohexyl]methyl}carbamate] |
| 3.14 | 6.55 | CC(C)(C)OC(=O)NC[C@H]1CC[C@H](CNS(=O)(=O)c2ccc3ncsc3c2)CC1 [Example 78, tert-Butyl [(trans-4-{[(1,3-benzothiazol-6-ylsulfonyl)amino]methyl}cyclohexyl)-methyl]carbamate] |
| 5.4 | > 20 | CCN(C[C@H]1CC[C@H](CNC(=O)OC(C)(C)C)CC1)S(=O)(=O)c1ccc2ccccc2c1 [Example 79, tert-Butyl [(trans-4-{[ethyl(2-naphthylsulfonyl)amino]methyl}cyclohexyl)methyl]-carbamate] |
| 3.01 | > 20 | CC(C)(C)OC(=O)NC[C@H]1CC[C@H](CN(CCc2ccccc2)S(=O)(=O)c2ccc3ccccc3c2)CC1 [Example 80, tert-Butyl [(trans-4-{[(2-naphthylsulfonyl)(2-phenylethyl)amino]methyl}cyclohexyl)-methyl]carbamate] |
